The results in this text go back to US10653780B2, “Amino lipids and methods for the delivery of nucleic acids” (ARBUTUS BIOPHARMA CORPORATION, priority 2008, dated 2020).

The nature of data set [1]: Pharmacokinetic and liver analysis of Cy-3 labeled siRNA in LN-siRNA systems. Format: in vivo. An excerpt: A fluorescently labeled siRNA (Cy-3 labeled luciferase siRNA, Alnylam Pharmaceuticals) was used to measure the siRNA content in plasma and liver after iv administration of LN-siRNA systems. The measurements were done by first extracting the Cy3-siRNA from the protein-containing biological matrix and then analyzing the amount of Cy-3 label in the extract by fluorescence. Two extraction methods were used, a chloroform/methanol mixture for the plasma samples and a commercial phenol/chloroform mixture (Trizol® reagent) with the tissue samples.
For plasma, blood was collected in EDTA-containing Vacutainer tubes and centrifuged at 1000×g for 10 min at 4-8° C. to isolate the plasma. The plasma was transferred to an eppendorf tube and either assayed immediately or stored in a −30° C. freezer. An aliquot of the plasma (100 μL maximum) was diluted to 500 μL with PBS (145 mM NaCl, 10 mM phosphate, pH 7.5), methanol (1.05 mL and chloroform (0.5 mL) was added, and the sample vortexed to obtain a clear, single phase solution. Water (0.5 mL) and chloroform (0.5 mL) was then added and the resulting emulsion sustained by mixing periodically for a minimum of 3 minutes. The mixture was centrifuged at 3000 rpm for 20 minutes and the top aqueous phase containing the Cy-3-label transferred to a new test tube. The fluorescence of the solution was measured using an SLM Fluorimeter at an excitation wavelength of 550 nm (2 nm bandwidth) and emission wavelength of 600 nm (16 nm bandwidth). A standard curve was generated by spiking aliquots of plasma from untreated animals with the Cy-3-siRNA containing formulation (0 to 15 μg/mL), and the sample processed as indicated above.
For liver, sections (400-500 mg) of tissue from saline-perfused animals was accurately weighed and homogenized in 1 mL of Trizol using Fastprep tubes. An aliquot of the homogenate (typically equivalent to 50 mg of tissue) was transferred to an eppendorf tube and additional Trizol added to 1 mL final. Chloroform (0.2 mL) was added, and the solution was mixed and incubated for 2-3 min before being centrifuged for 15 min at 12,000×g. An aliquot (0.5 mL) of the top Cy-3-containing aqueous phase was diluted with 0.5 mL of PBS and the fluorescence of the sample measured as described above.
The correlation between levels of siRNA delivered to the liver and FVII reduction was determined by encapsulating Cy-3 labeled siRNA in the selection of LN-siRNA systems covering a spectrum of in vivo activities shown in Table 8. Cy-3 fluorescence was measured in plasma and liver tissue 0.5 and 3.0 h post injection.

The subject of a further data set is Factor VII (FVII). The note with it: for FVII ED50: Table 11. An excerpt:
It is well established that in vivo RNAi silencing of specific hepatocyte proteins can be achieved following intravenous (i.v.) administration of siRNA's encapsulated in, or associated with, select nanoparticles designed for intracellular delivery. […] In this Example, rational design in combination with in vivo screening were applied to systematically modify the structure of DLinDMA and identify molecular features that enhance or reduce cationic lipid potency. More than 30 lipids were synthesized and incorporated into nucleic acid-lipid particles, i.e., lipid nanoparticles (LN) encapsulating an siRNA (LN-siRNA) targeting Factor VII (FVII), a blood clotting component synthesized and secreted by hepatocytes that is readily measured in serum. LN-siRNA systems were prepared using the same process, lipid molar ratios and particle size to minimize effects on activity resulting from formulation characteristics other than the cationic lipid. Each formulation was administered as a single bolus injection over a range of doses enabling an estimate of the siRNA dose required to reduce FVII serum protein concentrations by 50% after 24 h (ED50).
FVII activity was evaluated in FVII siRNA-treated animals at 24 hours after intravenous (bolus) injection in C57BL/6 mice or 48 hours after intravenous (bolus) injection in SD rats. Six to 8 week old, female C57Bl/6 mice were obtained from Charles River Laboratories and acclimated for one week prior to use in studies. Animals were held in a pathogen-free environment and all procedures involving animals were performed in accordance with the guidelines established by the Canadian Council on Animal Care.
LN-siRNA systems containing Factor VII siRNA were diluted to the appropriate concentrations in sterile phosphate buffered saline immediately prior to use, and the formulations were administered intravenously via the lateral tail vein in a total volume of 10 ml/kg. After 24 h, animals were anaesthetised with Ketamine/Xylazine and blood was collected by cardiac puncture and processed to serum (Microtainer Serum Separator Tubes; Becton Dickinson, Franklin Lakes, N.J., USA). Serum was tested immediately or stored at −70° C. for later analysis for serum Factor VII levels.
FVII was measured using a commercially available kit (Biophen FVII Kit™; Aniara Corp., Mason, Ohio), following the manufacturer's instructions at a microplate scale. FVII reduction was determined against untreated control animals, and the results were expressed as % Residual FVII. Five dose levels (0.1, 0.3, 0.5, 1.0, and 3.0 mg/kg) were typically used.
Serum Factor VII levels were determined using the colorimetric Biophen VII assay kit (Anaira, USA). Briefly, serially diluted pooled control serum (200%-3.125%) and appropriately diluted plasma samples from treated animals were analyzed using the Biophen VII kit according to manufacturer's instructions in 96-well, flat bottom, non-binding polystyrene assay plates (Corning, Corning, N.Y.) and absorbance at 405 nm was measured. A calibration curve was generated using the serial diluted control serum and used to determine levels of Factor VII in serum from treated animals.
Initial studies were performed in eight to 10 week old, female C57BL/6 mice in two stages. In the first stage, the activity associated with the benchmark lipid DLinDMA was compared to the activity associated with modified forms of DLinDMA.

Data set [2] can be described thus: In situ determination of apparent pKa using TNS fluorescence titration.
From the text: In situ pKa measurements were made using the pH sensitive fluorescent probe TNS, using a modification of the approach previously published in Bailey, A. L. and Cullis, P. R., Biochemistry 33:12573-12580 (1994).
Titrations of surface charge as a function of pH can then be used to determine the apparent pKa (hereafter referred to as pKa) of constituent lipids (Cullis, P. R., et al., Chem Phys Lipids 40:127-144 (1986)).
A short description of data set [3]: Bilayer-to-hexagonal HII transition temperature (TBH) in equimolar mixtures with DSPS. Format: physicochemical. The note with it: equimolar with DSPS, pH 4.8; 31P NMR and DSC. An excerpt:
Both techniques gave similar results.

The mark [4] stands for this setting: Table 4, siRNA dose reducing serum FVII protein by 50% at 24 h, PFV LN-siRNA 40/10/40/10.
[5] abbreviates: Table 8, FVII ED50 of the LN-siRNA system.
[6] abbreviates: Table 7, siRNA dose reducing serum FVII protein by 50% at 24 h, PFV LN-siRNA 40/10/40/10.
Setting [7] is: Table 6, siRNA dose reducing serum FVII protein by 50% at 24 h, PFV LN-siRNA 40/10/40/10.
[8] abbreviates: siRNA dose reducing serum FVII protein by 50% at 24 h, PFV LN-siRNA 40/10/40/10.
Setting [9] is: Table 3, siRNA dose reducing serum FVII protein by 50% at 24 h, single i.v. bolus, PFV LN-siRNA 40/10/40/10.
The mark [10] stands for this setting: Table 5, siRNA dose reducing serum FVII protein by 50% at 24 h, PFV LN-siRNA 40/10/40/10.

“And” between values parts separate entries of the source, which are not always exact repeats. Equal values may be shown once. Read-outs that look alike come from different tables or passages of the source. Some results are limits rather than exact numbers.

Usually ED50 stands for the dose at which the effect has come halfway, by size or by number of responders. For the compound `CCCCC/C=C\C/C=C\CCCCCCCCNC(=O)OCC(CN(C)C)OC(=O)NCCCCCCCC/C=C\C/C=C\CCCCC` (stereo not shown) [DLin-C-DAP, 1,2-Dilinoleylcarbamoyloxy-3-dimethylaminopropane], the entries for the “Liver Cy-3 siRNA” value in data set [1] (0.5 h post injection) and in data set [1] (3.0 h post injection) were 28.5 % injected dose and 13.5 % injected dose, respectively. Besides, the “Plasma Cy-3 siRNA” value in data set [1] (0.5 h post injection) is listed as 69.4 % injected dose; in data set [1] (3.0 h post injection), 19.0 % injected dose. Moreover, the ED50 in the data set with Factor VII (FVII) (setting [4]) and in the data set with Factor VII (FVII) (setting [5]) was 12 to 25 mg/kg in each case.

One may read the pKa as the negative logarithm of the acid dissociation constant. As for `CCCCC/C=C\C/C=C\CCCCCCCCC1(CCCCCCCC/C=C\C/C=C\CCCCC)OCC(CN(C)C)CO1` [DLin-K6-DMA, 2,2-dilinoleyl-5-dimethylaminomethyl-[1,3]-dioxane], the pKa in data set [2] is 6.2. The ED50 with Factor VII (FVII) (setting [6]) is about 0.3 mg/kg. In addition, in the data set on Factor VII (FVII), the “FVII ED50” value was about 0.3 mg/kg.

Turning to `CCCCC/C=C\C/C=C\CCCCCCCCC1(CCCCCCCC/C=C\C/C=C\CCCCC)OCC(CCCN(C)C)O1` (stereo not shown) [DLin-K-C3-DMA, 2,2-Dilinoleyl-4-(3-dimethylaminopropyl)-[1,3]-dioxolane], in data set [2], the pKa worked out at 6.8. The HII transition temperature in data set [3] came out at 18 °C. Further, the ED50 in the data set on Factor VII (FVII) (setting [7]) and with Factor VII (FVII) (setting [8]) was about 0.6 mg/kg throughout. Moreover, the “FVII ED50” value in the data set on Factor VII (FVII) is on record as about 0.6 mg/kg.

`CCCCC/C=C\C/C=C\CCCCCCCCC1(CCCCCCCC/C=C\C/C=C\CCCCC)OCC(CN2CCN(C)CC2)O1` (stereo not shown) [DLin-K-MPZ, 2,2-Dilinoleyl-4-N-methylpepiazino-[1,3]-dioxolane]: the pKa in data set [2] was 6.2. The ED50 in the data set on Factor VII (FVII) (setting [7]) and in the data set with Factor VII (FVII) (setting [8]) was about 1.5 mg/kg in each case. Besides, the “FVII ED50” value in the data set with Factor VII (FVII) is about 1.5 mg/kg. In the data set on Factor VII (FVII) (mouse FVII model), the “fold less active than DLin-K-DMA” value is reported as “approximately 5 fold”.

`CCCCC/C=C\C/C=C\CCCCCCCCOCC(CN(C)C)OCCCCCCCC/C=C\C/C=C\CCCCC` (stereo not shown) [DLinDMA, 1,2-Dilinoleyloxy-3-dimethylaminopropane, reference compound]: the pKa in data set [2] and in data set [2] (nucleic acid-lipid particles containing the cationic lipid) was 6.4 each time. In addition, the molecules charged in data set [2] (at pH 7.4) is reported as 5-10%. Besides, in data set [3], the HII transition temperature amounted to 27 °C. In addition, the 50% effective dose (ED50) was about 1 mg/kg in the data set with Factor VII (FVII) (setting [9]); about 1 mg/kg with Factor VII (FVII) (setting [4]); about 1 mg/kg in the data set with Factor VII (FVII) (setting [10]); 1.0 mg/kg in the data set with Factor VII (FVII) (setting [5]); ~1.0 mg/kg and 1 mg/kg with Factor VII (FVII) (setting [8]). In addition, the “FVII ED50” value with Factor VII (FVII) was about 1.0 mg/kg.

Turning to `CCCCC/C=C\C/C=C\CCCCCCCCOC(COC(=O)CCCCCCC/C=C\C/C=C\CCCCC)CN(C)C` (stereo not shown) [DLin-2-DMAP, 1-Linoleoyl-2-linoeyloxy-3-dimethylaminopropane], the “Liver Cy-3 siRNA” value in data set [1] (0.5 h post injection) was found to be 20.5 % injected dose; in data set [1] (3.0 h post injection) it was 2.5 % injected dose. The results for the “Plasma Cy-3 siRNA” value in data set [1] (0.5 h post injection) and in data set [1] (3.0 h post injection) were 17.5 % injected dose and 8.8 % injected dose, respectively. The ED50 in the data set with Factor VII (FVII) (setting [4]) and in the data set with Factor VII (FVII) (setting [5]) was 5 to 12 mg/kg in each case.

As to `CCCCC/C=C\C/C=C\CCCCCCCCC1(CCCCCCCC/C=C\C/C=C\CCCCC)OCC(CCCCN(C)C)O1` (stereo not shown) [DLin-K-C4-DMA, 2,2-Dilinoleyl-4-(4-dimethylaminobutyl)-[1,3]-dioxolane], in data set [2], the pKa stood at 6.8. Further, the HII transition temperature in data set [3] was 18 °C. Also, the median effective dose (ED50) with Factor VII (FVII) (setting [7]) and in the data set with Factor VII (FVII) (setting [8]) was over 3 mg/kg throughout. For the same compound, the “FVII ED50” value in the data set on Factor VII (FVII) is over 3.0 mg/kg. Also, the “fold less active in vivo than DLin-K-C3-DMA” value in the data set with Factor VII (FVII) (mouse, in vivo) was “more than 5 fold”.

On to `CCCCCCCC/C=C\CCCCCCCCOCC(CN(C)C)OCCCCCCCC/C=C\CCCCCCCC` (stereo not shown) [DODMA, reference compound], for which, in the data set on Factor VII (FVII) (setting [10]), the ED50 was in the range of 2 to 5 mg/kg. Moreover, in the data set with Factor VII (FVII) (mouse FVII model), the “fold less active than DLinDMA” value was 2 to 5 fold.

As for `CCCCC/C=C\C/C=C\CCCCCCCCSCC(CN(C)C)SCCCCCCCC/C=C\C/C=C\CCCCC` (stereo not shown) [DLin-S-DMA, 1 ,2-Dilinoleylthio-3-dimethylaminopropane], the 50% effective dose (ED50) with Factor VII (FVII) (setting [4]) and in the data set on Factor VII (FVII) (setting [5]) was 12 to 25 mg/kg throughout.

As to “1,2-Dilinoleyloxy-3-trimethylaminopropane chloride [DLinTMA.Cl]”, the ED50 in the data set with Factor VII (FVII) (setting [9]) lay within 2 to 5 mg/kg.

Turning to `CCCCC/C=C\C/C=C\CCCCCCCCC1(CCCCCCCC/C=C\C/C=C\CCCCC)OCC(CN(C)C)O1` (stereo not drawn) [DLin-K-DMA (+)], the median effective dose (ED50) in the data set with Factor VII (FVII) (setting [8]) is about 0.3 mg/kg.

As to `CCCCCCCC/C=C\CCCCCCCCC1(CCCCCCCC/C=C\CCCCCCCC)OCC(CN(C)C)O1` (stereo not shown) [DO-K-DMA], the ED50 in the data set with Factor VII (FVII) (setting [6]) and with Factor VII (FVII) (setting [8]) was about 1.0 mg/kg each time.
